From US20240239861A1, “GLUCAGON-RECEPTOR SELECTIVE POLYPEPTIDES AND METHODS OF USE THEREOF” (i2O Therapeutics, Inc., priority 2016, published 2024)
Where a SMILES comes first, the peptide text is derived from it. [ ]: non-standard residue; d: D form. Aib = CC(C)(N)C(=O)O

Experiments:
human GCGR = human GCGR (Homo sapiens, UniProt P47871); experiment: Peptide-receptor mediated cAMP accumulation (LANCE Ultra cAMP) in CHO-K1 cells transfected with human GCGR; format: cell-based; conditions: Table 3
human GCGR, sequence (P47871 26-477): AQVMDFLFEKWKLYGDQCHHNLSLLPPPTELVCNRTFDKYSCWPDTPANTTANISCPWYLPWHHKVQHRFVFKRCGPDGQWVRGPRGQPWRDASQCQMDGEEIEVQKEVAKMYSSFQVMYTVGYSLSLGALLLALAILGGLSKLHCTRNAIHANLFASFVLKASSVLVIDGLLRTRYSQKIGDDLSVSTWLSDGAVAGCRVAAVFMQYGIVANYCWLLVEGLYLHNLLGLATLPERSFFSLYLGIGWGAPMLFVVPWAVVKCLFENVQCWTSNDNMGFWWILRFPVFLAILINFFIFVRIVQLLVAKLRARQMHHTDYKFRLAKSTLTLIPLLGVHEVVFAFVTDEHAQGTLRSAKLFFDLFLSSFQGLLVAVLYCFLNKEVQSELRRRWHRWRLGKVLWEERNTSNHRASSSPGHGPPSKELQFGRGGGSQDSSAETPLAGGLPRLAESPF

human GLP-1R = human GLP-1R (Homo sapiens, UniProt P43220); experiment: Peptide-receptor mediated cAMP accumulation (LANCE Ultra cAMP) in CHO-K1 cells transfected with human GLP-1R; format: cell-based; conditions: hGLP1 pEC50 (cAMP mean (n = 3): 11 point curve starting at 1 nM, Table 3)
human GLP-1R, sequence (P43220 24-463): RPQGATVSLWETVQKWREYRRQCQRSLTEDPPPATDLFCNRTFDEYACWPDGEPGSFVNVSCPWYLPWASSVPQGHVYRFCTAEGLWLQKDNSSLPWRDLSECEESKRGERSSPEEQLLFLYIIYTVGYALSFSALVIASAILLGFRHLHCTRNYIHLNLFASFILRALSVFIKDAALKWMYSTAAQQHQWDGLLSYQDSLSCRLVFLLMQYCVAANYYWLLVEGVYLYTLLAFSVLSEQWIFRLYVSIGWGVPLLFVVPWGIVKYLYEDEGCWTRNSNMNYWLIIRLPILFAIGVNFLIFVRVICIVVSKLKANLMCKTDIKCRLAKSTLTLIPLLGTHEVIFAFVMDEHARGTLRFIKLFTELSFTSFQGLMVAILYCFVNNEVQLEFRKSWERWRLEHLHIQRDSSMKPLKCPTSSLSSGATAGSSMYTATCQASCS

Compound	EC50 (human GCGR)	EC50 (human GLP-1R)
CC(C)C[C@H](NC(=O)[C@H](Cc1ccc(O)cc1)NC(=O)[C@H](CCCCN)NC(=O)[C@H](CO)NC(=O)[C@H](Cc1ccc(O)cc1)NC(=O)[C@H](CC(=O)O)NC(=O)[C@H](CO)NC(=O)[C@@H](NC(=O)[C@H](Cc1ccccc1)NC(=O)[C@@H](NC(=O)CNC(=O)[C@H](Cc1c[nH]cn1)NC(=O)[C@H](CO)NC(=O)[C@@H](N)Cc1ccc(O)cc1)[C@@H](C)O)[C@@H](C)O)C(=O)N[C@@H](CC(=O)O)C(=O)NC(C)(C)C(=O)N[C@@H](CCCCN)C(=O)N[C@@H](CCCNC(=N)N)C(=O)N[C@@H](C)C(=O)N[C@@H](CCC(N)=O)C(=O)N[C@@H](CCC(=O)O)C(=O)N[C@@H](Cc1ccccc1)C(=O)N[C@H](C(=O)NC(C)(C)C(=O)N[C@@H](Cc1c[nH]c2ccccc12)C(=O)N[C@@H](CC(C)C)C(=O)N[C@@H](CCC(=O)O)C(=O)N[C@@H](CC(=O)O)C(=O)N[C@@H](CCC(=O)O)C(=O)N1CCC[C@H]1C(=O)N[C@@H](CCCCN)C(=O)N[C@@H](CO)C(=O)N[C@@H](CCCCN)C(=O)N[C@@H](CCC(N)=O)C(=O)N1CCC[C@H]1C(=O)N1CCC[C@H]1C(=O)N1CCC[C@H]1C(=O)N[C@@H](CO)C(=O)O)C(C)C [Compound A57] (H-YSHGTFTSDYSKYLD[Aib]KRAQEFV[Aib]WLEDEPKSKQPPPS-OH; N-terminus assumed)	1 pM	> 1000 pM
CC(C)C[C@H](NC(=O)[C@H](Cc1ccc(O)cc1)NC(=O)[C@H](CCCCN)NC(=O)[C@H](CO)NC(=O)[C@H](Cc1ccc(O)cc1)NC(=O)[C@H](CC(=O)O)NC(=O)[C@H](CO)NC(=O)[C@@H](NC(=O)[C@H](Cc1ccccc1)NC(=O)[C@@H](NC(=O)CNC(=O)[C@H](Cc1c[nH]cn1)NC(=O)[C@@H](NC(=O)[C@@H](N)Cc1ccc(O)cc1)[C@@H](C)O)[C@@H](C)O)[C@@H](C)O)C(=O)N[C@@H](CC(=O)O)C(=O)NC(C)(C)C(=O)N[C@@H](CCCCN)C(=O)N[C@@H](CCCNC(=N)N)C(=O)N[C@@H](C)C(=O)N[C@@H](CCC(N)=O)C(=O)N[C@@H](CCC(=O)O)C(=O)N[C@@H](Cc1ccccc1)C(=O)N[C@H](C(=O)NC(C)(C)C(=O)N[C@@H](Cc1c[nH]c2ccccc12)C(=O)N[C@@H](CC(C)C)C(=O)N[C@@H](CCC(=O)O)C(=O)N[C@@H](CC(=O)O)C(=O)N[C@@H](CCC(=O)O)C(=O)N1CCC[C@H]1C(=O)N[C@@H](CO)C(=O)N[C@@H](CO)C(=O)NCC(=O)N[C@@H](CCCCN)C(=O)N1CCC[C@H]1C(=O)N1CCC[C@H]1C(=O)N1CCC[C@H]1C(=O)N[C@@H](CO)C(=O)O)C(C)C [Compound A60] (H-YTHGTFTSDYSKYLD[Aib]KRAQEFV[Aib]WLEDEPSSGKPPPS-OH; N-terminus assumed)	5.01 pM	> 1000 pM
CC(C)C[C@H](NC(=O)[C@H](Cc1ccc(O)cc1)NC(=O)[C@H](CCCCN)NC(=O)[C@H](CO)NC(=O)[C@H](Cc1ccc(O)cc1)NC(=O)[C@H](CC(=O)O)NC(=O)[C@H](CO)NC(=O)[C@@H](NC(=O)[C@H](Cc1ccccc1)NC(=O)[C@@H](NC(=O)CNC(=O)[C@H](Cc1c[nH]cn1)NC(=O)[C@@H](NC(=O)[C@@H](N)Cc1ccc(O)cc1)[C@@H](C)O)[C@@H](C)O)[C@@H](C)O)C(=O)N[C@@H](CC(=O)O)C(=O)NC(C)(C)C(=O)N[C@@H](CCCCN)C(=O)N[C@@H](CCCNC(=N)N)C(=O)N[C@@H](C)C(=O)N[C@@H](CCC(N)=O)C(=O)N[C@@H](CCC(=O)O)C(=O)N[C@@H](Cc1ccccc1)C(=O)N[C@H](C(=O)NC(C)(C)C(=O)N[C@@H](Cc1c[nH]c2ccccc12)C(=O)N[C@@H](CC(C)C)C(=O)N[C@@H](CCC(=O)O)C(=O)N[C@@H](CC(=O)O)C(=O)N[C@@H](CCC(=O)O)C(=O)N1CCC[C@H]1C(=O)N[C@@H](CO)C(=O)N[C@@H](CO)C(=O)NCC(=O)N[C@@H](C)C(=O)N1CCC[C@H]1C(=O)N1CCC[C@H]1C(=O)N1CCC[C@H]1C(=O)N[C@@H](CO)C(=O)O)C(C)C [Compound A62] (H-YTHGTFTSDYSKYLD[Aib]KRAQEFV[Aib]WLEDEPSSGAPPPS-OH; N-terminus assumed)	3.16 pM	> 1000 pM
CC(C)C[C@H](NC(=O)[C@H](Cc1ccc(O)cc1)NC(=O)[C@H](CCCCN)NC(=O)[C@H](CO)NC(=O)[C@H](Cc1ccc(O)cc1)NC(=O)[C@H](CC(=O)O)NC(=O)[C@H](CO)NC(=O)[C@@H](NC(=O)[C@H](Cc1ccccc1)NC(=O)[C@@H](NC(=O)CNC(=O)[C@H](Cc1c[nH]cn1)NC(=O)[C@@H](NC(=O)[C@@H](N)Cc1ccc(O)cc1)[C@@H](C)O)[C@@H](C)O)[C@@H](C)O)C(=O)N[C@@H](CC(=O)O)C(=O)N[C@@H](CO)C(=O)N[C@@H](C)C(=O)N[C@@H](CCCNC(=N)N)C(=O)N[C@@H](C)C(=O)N[C@@H](CCC(N)=O)C(=O)N[C@@H](CCC(=O)O)C(=O)N[C@@H](Cc1ccccc1)C(=O)N[C@H](C(=O)N[C@@H](CCCCN)C(=O)N[C@@H](Cc1c[nH]c2ccccc12)C(=O)N[C@@H](CC(C)C)C(=O)N[C@@H](CCC(=O)O)C(=O)N[C@@H](CC(=O)O)C(=O)N[C@@H](CCC(=O)O)C(=O)N1CCC[C@H]1C(=O)N[C@@H](CO)C(=O)N[C@@H](CO)C(=O)NCC(=O)N[C@@H](C)C(=O)N1CCC[C@H]1C(=O)N1CCC[C@H]1C(=O)N1CCC[C@H]1C(=O)N[C@@H](CO)C(=O)O)C(C)C [Compound A63] (H-YTHGTFTSDYSKYLDSARAQEFVKWLEDEPSSGAPPPS-OH)	39.8 pM	> 1000 pM
CC(C)C[C@H](NC(=O)[C@H](Cc1ccc(O)cc1)NC(=O)[C@H](CCCCN)NC(=O)[C@H](CO)NC(=O)[C@H](Cc1ccc(O)cc1)NC(=O)[C@H](CC(=O)O)NC(=O)[C@H](CO)NC(=O)[C@@H](NC(=O)[C@H](Cc1ccccc1)NC(=O)[C@@H](NC(=O)CNC(=O)[C@H](Cc1c[nH]cn1)NC(=O)[C@@H](NC(=O)[C@@H](N)Cc1ccc(O)cc1)[C@@H](C)O)[C@@H](C)O)[C@@H](C)O)C(=O)N[C@@H](CC(=O)O)C(=O)NC(C)(C)C(=O)N[C@@H](C)C(=O)N[C@@H](CCCNC(=N)N)C(=O)N[C@@H](C)C(=O)N[C@@H](CCC(N)=O)C(=O)N[C@@H](CCC(=O)O)C(=O)N[C@@H](Cc1ccccc1)C(=O)N[C@H](C(=O)NC(C)(C)C(=O)N[C@@H](Cc1c[nH]c2ccccc12)C(=O)N[C@@H](CC(C)C)C(=O)N[C@@H](CCC(=O)O)C(=O)N[C@@H](CC(=O)O)C(=O)N[C@@H](CCC(=O)O)C(=O)N1CCC[C@H]1C(=O)N[C@@H](CO)C(=O)N[C@@H](CO)C(=O)NCC(=O)N[C@@H](C)C(=O)N1CCC[C@H]1C(=O)N1CCC[C@H]1C(=O)N1CCC[C@H]1C(=O)N[C@@H](CO)C(=O)O)C(C)C [Compound A64] (H-YTHGTFTSDYSKYLD[Aib]ARAQEFV[Aib]WLEDEPSSGAPPPS-OH; N-terminus assumed)	20 pM	> 1000 pM
